Laboratory results reported in patent US9889145B2, “Methods to treat infections” (priority 2013, dated 2018).
Entries after “also recorded” stand apart in the source; their conditions may differ.

What was measured:
[1] = system: Arg2; test: Arg2 in lung and liver of Bt-infected mice (Western blot, immunohistochemical staining); assay type: in vivo
[2] = system: arginase; test: Quantitative assay for urea in lungs of Bt-infected mice (indirect measurement of Arg activity); assay type: in vivo; details: 80 mg/kg Celecoxib vs mock-treated Bt-infected mice
[3] = system: IL-1α, IL-6 and KC; test: IL-1α, IL-6 and KC in the lungs of Bt-infected mice; assay type: in vivo; details: 80 mg/kg Celecoxib vs mock; 48 hours post-infection with Bt
[4] = system: BALB/c mice infected with B. thailandensis; details: mouse, in vivo
[5] = system: B. thailandensis; parameters: species or system Burkholderia thailandensis; details: in vivo
[6] = system: PGE-2; parameters: species or system mice; details: mouse, in vivo
[7] = system: Burkholderia thailandensis (Bt); assay type: cell-based
[8] = system: PGE-2; assay type: cell-based, murine
[9] = system: B. pseudomallei; assay type: cell-based, Burkholderia pseudomallei
[10] = system: NO; assay type: cell-based, mice
[11] = system: NO; assay type: cell-based, mice; remark: listed apart in the source
[12] = system: iNOS; assay type: cell-based
[13] = system: iNOS; assay type: cell-based, mice; details: 4 hours
[14] = system: Arg2; assay type: cell-based, mice
[15] = system: Burkholderia pseudomallei strain 1026b; assay type: in vivo
[16] = system: Arg2; parameters: species or system mice; details: mouse, in vivo, 15 mg/kg
[17] = system: PGE-2; assay type: in vivo, mice; details: n=2
[18] = system: B. pseudomallei; assay type: in vivo, Burkholderia pseudomallei; details: n=2
[19] = daily maximum dose of 15 mg/kg in mice, cited from earlier work
[20] = system: CD4+ T-cells; test: IFN-γ and IL-2 production by stimulated CD4+ T-cells; assay type: cell-based, mice; details: low dose (100 pg/ml) or high dose (10,000 pg/ml) PGE-2; Day 6; vs stimulated

Cc1ccc(-c2cc(C(F)(F)F)nn2-c2ccc(S(N)(=O)=O)cc2)cc1 [Celecoxib, 4-[5-(4-methylphenyl)-3-(trifluoromethyl)pyrazol-1-yl]benzenesulfonamide]
number of Arg2 positively-stained cells in lungs (immunohistochemical staining) ([1]; 80 mg/kg Celecoxib vs mock-treated Bt-infected mice): reduction in the number of Arg2 positively-stained cells
Arg2 in the lungs (Western blot) ([1]; 80 mg/kg Celecoxib vs mock-treated mice, 48 hours after pulmonary Bt infection): reduction in Arg2 in the lungs
urea levels in the lungs [2]: lower
IL-1α in the lungs [3]: reduced
IL-6 in the lungs [3]: reduced
KC in the lungs [3]: reduced
lung inflammation (histological examination) [4]: reduced
bacterial burden in liver [5]: reduction in bacterial burdens
bacterial burden in lung [5]: reduction in bacterial burdens
bacterial burden in spleen [5]: reduction in bacterial burdens
PGE-2 in the lungs (ELISA) [6]: PGE-2 reduction

CS(=O)(=O)Nc1ccc([N+](=O)[O-])cc1OC1CCCCC1 [NS398, N-[2-(cyclohexyloxy)-4-nitrophenyl]-methanesulfonamide]
survival of intracellular Bt [7]: decrease in survival of intracellular bacteria
PGE-2 levels in supernatants [8]: reduced
Bps intracellular survival [9]: reduction in Bps survival; also recorded: enhanced intracellular killing of B. pseudomallei
NO production [10]: higher production of NO
NO production (nitrite) [11]: higher production of NO; also recorded: increase in nitrite
iNOS expression [12]: two-fold increase in iNOS expression
iNOS mRNA expression [13]: no differences in iNOS mRNA expression; also recorded: did not observe any apparent change in iNOS mRNA expression
Arg2 expression [14]: reduction in Arg2 expression
bacteria recovered from the lungs at the study endpoint ([15]; in vivo): No bacteria were recovered
bacteria recovered from the lungs of the two animals euthanized on day 5 and day 7 (hind leg paralysis) ([15]; in vivo): No bacteria were recovered
colonization of spleen and liver ([15]; in vivo): 20-100 cfu
first signs of illness ([15]; in vivo): ≥ 5
lung bacteria of the one exceptional animal at the study endpoint ([15]; in vivo): 104 cfu
weight loss throughout the study ([15]; in vivo): no evidence of weight loss
survival / recovery over 10 days ([15]; n=8): appeared to have recovered from the infection; also recorded: protection against lethal pulmonary melioidosis
Arg2 expression in lungs (Western blot, densitometry) [16]: decreases
PGE-2 concentration in lung tissue [17]: reduce PGE-2 concentration in lung tissue
PGE-2 concentration in stomach tissue [17]: reduce PGE-2 concentration in stomach tissue
growth of B. pseudomallei in lung tissue (CFU/mg) [18]: suppresses the growth of B. pseudomallei in lung tissue
growth of B. pseudomallei in stomach tissue (CFU/mg) [18]: suppresses the growth of B. pseudomallei in stomach tissue
lung PGE-2 ([19]; previously documented pharmacological efficacy): reducing lung PGE-2
associated toxicity ([19]; previously documented): without any associated toxicity

CCCCC[C@H](O)/C=C/[C@H]1[C@H](O)CC(=O)[C@@H]1C/C=C\CCCC(=O)O [PGE-2]
NO levels after adding PGE-2 [10]: reduced NO levels
NO (nitrite) levels after adding PGE-2 [11]: reduced NO levels; also recorded: reduced nitrite levels
iNOS mRNA expression [13]: no differences in iNOS mRNA expression; also recorded: did not observe any apparent change in iNOS mRNA expression
increase in Arg2 expression [14]: 376 fold
IFN-gamma production by stimulated CD4+ T-cells [20]: reduces
IL-2 production by stimulated CD4+ T-cells [20]: reduces

N=C(NO)NCC[C@H](N)C(=O)O [nor-NOHA, nor-N^ω-hydroxy-L-arginine]
Bt intracellular survival [7]: decrease
Bps intracellular survival [9]: decrease in B. pseudomallei intracellular survival
NO levels [10]: increase in NO levels
NO (nitrite) levels [11]: increase in NO levels; also recorded: increase in nitrite levels
